Where a name gives a salt, the structure may show the parent alone. Read-outs that look alike come from different tables or passages of the source.
How the values were obtained:
GPIIb/IIIa [1] = molecular target: T1, GPIIb/IIIa (Homo sapiens, UniProt P05106+P08514); assay: In Vitro Solid Phase Purified Glycoprotein IIb/IIIa Binding Assay (fibrinogen binding)
Description: In Vitro Solid Phase Purified Glycoprotein IIB/IIIA Binding Assay
The plate is covered and incubated overnight at 4° C. The GPIIb/IIIa solution is discarded and 150 μl of 5% BSA is added and incubated at RT for 1-3 h. The plate is washed extensively with modified Tyrodes buffer. Biotinylated fibrinogen (25 μl/well) at 2×final concentration is added to the wells that contain the test compounds (25 μl/well). The plate is covered and incubated at RT for 2-4 h. Twenty minutes prior to incubation completion, one drop of Reagent A (Vecta Stain ABC Horse Radish Peroxidase kit, Vector Laboratories, Inc.) and one drop Reagent B are added with mixing to 5 mL modified Tyrodes buffer mix and let stand. The ligand solution is discarded and the plate washed (5×200 μl/well) with modified Tyrodes buffer. Vecta Stain HRP-Biotin-Avidin reagent (50 μl/well, as prepared above) is added and incubated at RT for 15 min. The Vecta Stain solution is discarded and the wells washed ([…]) with modified Tyrodes buffer. Developing buffer (10 mL of 50 mM citrate/phosphate buffer @ pH 5.3, 6 mg Q-phenylenediamine, 6 μl 30% H2 O2; 50 μl/well) is added and incubated at RT for 3-5 min, and then 2N H2 SO4 (50 μl/well) is added. The absorbance is read at 490 nm.

[2] = test system: gel-filtered platelets (thrombin-induced aggregation); assay: In Vitro Inhibition of Thrombin-Induced Gel-Filtered Platelet Aggregation Assay; format: cell-based; conditions: Homo sapiens; for inhibition at 50 µM: read-out: Platelet Aggregation % Inh. (50 μM); for IC50: read-out: Platelet Aggregation IC50
Description: In Vitro Inhibition of Thrombin-Induced Gel-Filtered Platelet Aggregation Assay
The percentage of platelet aggregation is calculated as an increase in light transmission of compound-treated platelet concentrate vs. control-treated platelet concentrate. Human blood is obtained from drug free, normal donors into tubes containing 0.13M sodium citrate. Platelet rich plasma (PRP) is collected by centrifugation of whole blood at 200×g for 10 min at 25° C. The PRP (5 mL) is gel filtered through Sepharose 2B (bed volume 50 mL), and the platelet count is adjusted to 2×10^7 platelets per sample. The following constituents are added to a siliconized cuvette: concentrated platelet filtrate and Tyrode's buffer (0.14M NaCl, 0.0027M KCl, 0.012M NaHCO3,0.76 mM Na2 HPO4, 0.0055M glucose, 2 mg/mL BSA and 5.0 mM HEPES @ pH 7.4) in an amount equal to 350 μl, 50 μl of 20 mM calcium and 50 μl of the test compound. Aggregation is monitored in a BIODATA aggregometer for the 3 min following the addition of agonist (thrombin 50 μl of 1 unit/mL).

[3] = test system: platelets (thrombin-induced platelet aggregation); conditions: L. Alig, J. Med. Chem. 1992, 35, 4393; read-out: IC50 against in vitro thrombin-induced platelet aggregation; cited from earlier work
GPIIb/IIIa [4] = molecular target: T1, GPIIb/IIIa; conditions: background statement; cited from earlier work
thrombus formation = assay: canine arteriovenous shunt model of thrombosis; format: in vivo; conditions: iv infusion
[5] = test system: collagen or ADP-induced ex vivo platelet aggregation; assay: Ex Vivo Dog Study: ex vivo platelet aggregation; format: in vivo
Description: Adult mongrel dogs (8-13 kg) were anesthetized with sodium pentobarbital ([…], i.v.) and artificially respired. Arterial blood pressure and heart rate were measured using a Millar catheter-tip pressure transducer inserted in a femoral artery Another Millar transducer was placed in the left ventricle (LV) via a carotid artery to measure LV end diastolic pressure and indices of myocardial contractility. A lead electrocardiogram was recorded from limb electrodes. Catheters were placed in a femoral artery and vein to sample blood and infuse drugs, respectively. Responses were continuously monitored using a Modular Instruments data aquisition system.
Separate blood samples (1.5 ml) were withdrawn in EDTA to determine hematocrit and cell counts (platelets, RBC's and white cells). Template bleeding times were obtained from the buccal surface using a symplate incision devise and Whatman filter paper.
Aggregation of PRP was performed using a BioData aggregometer. Aggregation of whole blood used a Chronolog impedance aggregometer. PT and APTT were determined on either a BioData or ACL 3000+ coagulation analyser. Cells were counted with a Sysmex K-1000.
Compounds were solubilized in a small volume of dimethylformamide (DMF) and diluted with saline to a final concentration of 10% DMF. Compounds were administered by the intravenous route with a Harvard infusion pump. […] Data were obtained after each dose and in 30 min intervals following the end of drug administration. Oral doses were administered as aqueous solutions via syringe.

[6] = isolated GPIIb/IIIa, biotinylated fibrinogen, read-out: Fibrinogen Binding IC50
[7] = 50 μM, thrombin-induced aggregation of gel-filtered platelets
[8] = thrombin-induced aggregation of gel-filtered platelets

Compound	IC50 (GPIIb/IIIa [1]; [6])	inhibition at 50 µM [2, 7]	further results
O=C(O)C[C@H](NC(=O)[C@@H]1CCCN(C(=O)CCC2CCNCC2)C1)c1cccnc1 [Compound 21, N-3-(4-Piperidinepropionyl)-R-(-)-nipecotyl-[(S)-3-amino-3-(3-pyridyl)]propionic acid.2TFA]	0.5 nM	100%	IC50 [2, 8]: 60 nM
CN(CC(=O)c1ccc(OCC(=O)O)c(OCC(=O)O)c1)C(=O)c1ccc(C(=N)N)cc1 [Ro-438857]	–	–	IC50 [3]: 94 nM
O=C(O)C[C@H](NC(=O)[C@@H]1CCCN(C(=O)CCC2CCNCC2)C1)c1cncc(Br)c1 [Compound 32, N-3-(4-Piperidinepropionyl)-R-(-)nipecotyl-[(S)-3-amino-3-(5-bromo-3-pyridyl)]propionic acid.2HCl]	0.4 nM	–	–
N=CN1CCC(CCC(=O)N2CCC[C@@H](C(=O)N[C@@H](CC(=O)O)c3cccnc3)C2)CC1 [Compound 33, N-3-(4-Formamidinopiperidinepropionyl)-R-(-)nipecotyl-[(S)-3-amino-3-(3-pyridyl)]propionic acid.2HCl]	0.7 nM	100%	IC50 [2, 8]: 300 nM
O=C(NC[C@H](NS(=O)(=O)Cc1ccccc1)C(=O)O)[C@@H]1CCCN(C(=O)CCC2CCNCC2)C1 [Compound 25, N-3-(4-Piperidinepropionyl)-R-(-)nipecotyl-[(S)-2-benzylsulfonylamino-3-amino]propionic acid.HCl]	0.3 nM	–	IC50 [2, 8]: 7 nM
O=C(O)C(O)CNC(=O)[C@@H]1CCCN(C(=O)CCC2CCNCC2)C1 (single isomer, unassigned) [Compound 11, N-3-(4-Piperidinepropionyl)-R-(-)-nipecotyl-(3-amino-2-hydroxy) propionic acid.TFA]	4 nM	–	–
O=C(N[C@@H](CNC(=O)[C@@H]1CCCN(C(=O)CCC2CCNCC2)C1)C(=O)O)OCc1cccc(Cl)c1 [Compound 24, N-3-(4-Piperidinepropionyl)-R-(-)nipecotyl-[(S)-2-(3-chlorobenzyloxy)carbonylamino-3-amino]propionic acid.HCl]	–	100%	–
O=C(Nc1ccc2ccccc2c1)N[C@@H](CNC(=O)[C@@H]1CCCN(C(=O)CCC2CCNCC2)C1)C(=O)O [Compound 28, N-3-(4-Piperidinepropionyl)-R-(-)nipecotyl-[(S)-2-(2-naphthylamino)carbonylamino-3-amino]propionic acid.HCl]	0.2 nM	100%	–
NCCCCCC(=O)N1CCCC(C(=O)NC(CC(=O)O)c2cccnc2)C1 (stereo not drawn) [Compound 10, N-(6-Aminocaproyl)-nipecotyl-3-amino-3-(3-pyridyl)propionic acid.3TFA]	–	85%	IC50 (GPIIb/IIIa [1]): 19 nM; IC50 [2, 8]: 1600 nM
O=C(O)C[C@H](NC(=O)C1CCCN(CCCC2CCNCC2)C1)c1ccc2c(c1)OCO2 (stereo partly drawn) [Compound 20, N-3-(4-Piperidinepropyl)-nipecotyl-[(S)-3-amino-3-(3,4-methylenedioxyphenyl)]propionic acid.2TFA]	0.7 nM	–	–
HHLGGAKQAGDV [γ-chain peptide region of fibrinogen, γ400-411]	–	–	inhibition of fibrinogen binding to GPIIb/IIIa (GPIIb/IIIa [4]): shown to inhibit fibrinogen binding to GPIIb/IIIa
O=C(O)C[C@H](NC(=O)[C@@H]1CCCN(C(=O)CCC2CCNCC2)C1)c1cnc2ccccc2c1 [Compound 18, N-3-(4-Piperidinepropionyl)-R-(-)-nipecotyl-[(S)-3-amino-3-(3-quinolinyl)]propionic acid.2HCl]	0.2 nM	100%	efficacy in canine arteriovenous shunt model of thrombosis (thrombus formation): have shown efficacy in a canine arteriovenous shunt model of thrombosis in a dose-dependent fashion
Arg-Gly-Asp [Arg-Gly-Asp (RGD)]	–	–	inhibition of fibrinogen binding to GPIIb/IIIa (GPIIb/IIIa [4]): shown to inhibit fibrinogen binding to GPIIb/IIIa
COc1cc(NC(=O)N[C@@H](CNC(=O)[C@@H]2CCCN(C(=O)CCC3CCNCC3)C2)C(=O)O)cc(OC)c1 [Compound 26, N-3-(4-Piperidinepropionyl)-R-(-)nipecotyl-[(S)-2-(3,5-dimethoxyanilino)carbonylamino-3-amino]propionic acid.HCl]	0.3 nM	–	–
O=C(O)C[C@H](NC(=O)[C@@H]1CCCN(C(=O)CCC2CCNCC2)C1)c1ccc2c(c1)OCO2 [Compound 16, N-3-(4-Piperidinepropionyl)-R-(-)-nipecotyl-[(S)-3-amino-3-(3,4-methylenedioxyphenyl)]propionic acid.HCl]	0.5 nM	–	inhibition at 50 µM (GPIIb/IIIa [1]; read-out: Fibrinogen Binding % Inh. (50 μM)): 100%; inhibition at 50 µM [2]: 94%; IC50 [2]: 28 nM; Duration of >50% inhibition of collagen or ADP induced ex vivo platelet aggregation ([5]; intravenous, 0.1 mpk): 60 min; Duration of >50% inhibition of collagen or ADP induced ex vivo platelet aggregation ([5]; oral, 1 mpk): 60 min; Duration of >50% inhibition of collagen or ADP induced ex vivo platelet aggregation ([5]; oral, 3 mpk): > 180 min; thrombus weight vs. vehicle control (thrombus formation; 10 μg/kg/min cumulative dose): 75%; thrombus weight vs. vehicle control (thrombus formation; 30 μg/kg/min cumulative dose): 37%; thrombus weight vs. vehicle control (thrombus formation; 100 μg/kg/min cumulative dose): 12%; efficacy in canine arteriovenous shunt model of thrombosis (thrombus formation): have shown efficacy in a canine arteriovenous shunt model of thrombosis in a dose-dependent fashion
O=C(N[C@@H](CNC(=O)[C@@H]1CCCN(C(=O)CCC2CCNCC2)C1)C(=O)O)OCc1ccccc1 [Compound 23, N-3-(4-Piperidinepropionyl)-R-(-)nipecotyl-[(S)-2-benzyloxycarbonylamino-3-amino]propionic acid.HCl]	0.3 nM	–	–
O=C(NC[C@@H]1NC(=O)N(Cc2ccccc2)C1=O)[C@@H]1CCCN(C(=O)CCC2CCNCC2)C1 [Compound 29, N-3-(4-Piperidinepropionyl)-R-(-)nipecotyl-aminomethyl-5-(S)-(3-N-benzyl)imidazoline-2,4-dione.HCl]	68 nM	100%	–
Cc1ccc([C@H](CC(=O)O)NC(=O)[C@@H]2CCCN(C(=O)CCC3CCNCC3)C2)cn1 [Compound 31, N-3-(4-Piperidinepropionyl)-R-(-)nipecotyl-[(S)-3-amino-3-(6-methyl-3-pyridyl)]propionic acid.2HCl]	0.3 nM	100%	–
COc1cccc(NC(=O)N[C@@H](CNC(=O)[C@@H]2CCCN(C(=O)CCC3CCNCC3)C2)C(=O)O)c1 [Compound 22, N-3-(4-Piperidinepropionyl)-R-(-)nipecotyl-[(S)-2-(3-methoxyanilino)carbonylamino-3-amino]propionic acid]	0.7 nM	–	–
O=C(NCCc1ccccc1)N[C@@H](CNC(=O)[C@@H]1CCCN(C(=O)CCC2CCNCC2)C1)C(=O)O [Compound 30, N-3-(4-Piperidinepropionyl)-R-(-)nipecotyl-[(S)-2-(2-phenethylamino)carbonylamino-3-amino]propionic acid.HCO2 H]	0.8 nM	100%	–
O=C(O)C[C@H](NC(=O)[C@@H]1CCCN(C(=O)N2CCC(C3CCNCC3)CC2)C1)c1cccnc1 [Compound 27, N-[(4,4'-Bipiperidin-1-yl-)carbonyl]-R-(-)-nipecotyl-[(S)-3-amino-3-(3-pyridyl)]propionic acid.3HCl]	0.6 nM	100%	–
